Experimental data taken from patent publication US8309581B2, “Benzimidazole derivatives” (Hoffmann-La Roche Inc., priority 2009, dated 2012).

Target: T1, FXR ligand binding domain (Homo sapiens, UniProt Q96RI1)
T1 construct: made in house; host or cells: E. coli BL21 (pLysS)
T1 sequence (Q96RI1 193-472 isoform Q96RI1-2): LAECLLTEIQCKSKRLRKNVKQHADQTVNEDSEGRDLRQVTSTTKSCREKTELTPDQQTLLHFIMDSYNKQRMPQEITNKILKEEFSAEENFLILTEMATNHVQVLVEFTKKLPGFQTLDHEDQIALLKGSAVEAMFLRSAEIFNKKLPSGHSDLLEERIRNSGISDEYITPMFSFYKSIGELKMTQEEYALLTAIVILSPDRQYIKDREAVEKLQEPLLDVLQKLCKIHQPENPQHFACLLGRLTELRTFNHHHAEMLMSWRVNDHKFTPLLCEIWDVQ
Assay: Radioligand Binding Assay (scintillation proximity radioligand displacement)
Settings: GST-FXR LBD fusion protein on SPA beads, test compound 6×10^−9 M to 2.5×10^−5 M
Description: The following tests were carried out in order to determine the activity of the compounds of formula (I). Background information on the binding assay can be found in: Nichols J S et al. “Development of a scintillation proximity assay for peroxisome proliferator-activated receptor gamma ligand binding domain”, (1998) Anal. Biochem. 257: 112-119.
Bacterial and mammalian expression vectors were constructed to produce glutathione-s-transferase (GST) and Gal4 DNA binding domain (GAL) proteins fused to the ligand binding domain (LBD) of human FXR (aa 193-473). To accomplish this, the portions of the sequences encoding the FXR LBD were amplified by polymerase chain reaction (PCR) from a full-length clone by PCR and then subcloned into the plasmid vectors. The final clone was verified by DNA sequence analysis.
The induction, expression, and subsequent purification of GST-LBD fusion protein was performed in E. coli strain BL21 (pLysS) cells by standard methods (Current Protocols in Molecular Biology, Wiley Press, ed. Ausubel et al.).
Radioligand Binding Assay
Binding of test substances to the FXR ligand binding domain was assessed in a radioligand displacement assay. The assay was performed in a buffer consisting of 50 mM Hepes, pH 7.4, 10 mM NaCl, 5 mM MgCl2, 0.01% CHAPS. For each reaction well in a 96-well plate, 40 nM of GST-FXR LBD fusion protein was bound to […] glutathione ytrium silicate SPA beads (PharmaciaAmersham) in a final volume of […] by shaking. A radioligand (e.g., 20 nM of 2,N-dicyclohexyl-2-[2-(2,4 dimethoxy-phenyl)-benzoimidazol-1-yl]-acetamide) and test compounds were added, and scintillation proximity counting was performed. All binding assays were performed in 96-well plates and the amount of bound ligand was measured on a Packard TopCount using OptiPlates (Packard). Dose response curves were performed within a range of test compound concentrations from 6×10^−9 M to 2.5×10^−5 M and IC50 values were calculated.

| SMILES | IC50 [nM] |
| --- | --- |
| Fc1cc2nc(-c3cccnc3OCC3CCCC3)n(Cc3cccc(Cl)c3)c2cc1F [Example 12, 1-(3-Chloro-benzyl)-2-(2-cyclopentylmethoxy-pyridin-3-yl)-5,6-difluoro-1H-benzoimidazole] | 1500 |
| O=C(O)c1ccc(COc2ncccc2-c2nc3cc(F)c(F)cc3n2Cc2cccc(Cl)c2)cc1 [Example 14, 4-{3-[1-(3-Chloro-benzyl)-5,6-difluoro-1H-benzoimidazol-2-yl]-pyridin-2-yloxymethyl}-benzoic acid] | 5200 |
| FC1(F)CCC(Cn2c(-c3ccccc3CCc3ccc(-c4nnn[nH]4)cc3)nc3ccccc32)CC1 [Example 81, 1-(4,4-Difluoro-cyclohexylmethyl)-2-(2-{2-[4-(1H-tetrazol-5-yl)-phenyl]-ethyl}-phenyl)-1H-benzoimidazole] | 40 |
| Fc1cc2nc(-c3ccc(Cl)cc3CCc3ccc(-c4nnn[nH]4)cc3)n(CC3CCCCC3)c2cc1F [Example 73, 2-(4-Chloro-2-{2-[4-(1H-tetrazol-5-yl)-phenyl]-ethyl}-phenyl)-1-cyclohexylmethyl-5,6-difluoro-1H-benzoimidazole] | 10 |
| Fc1cc2nc(-c3ccc(Cl)cc3OCC3CCCCO3)n(Cc3ccc(-c4nnn[nH]4)cc3F)c2cc1F (stereo not shown) [Example 93, 2-[4-Chloro-2-(tetrahydro-pyran-2-ylmethoxy)-phenyl]-5,6-difluoro-1-[2-fluoro-4-(1H-tetrazol-5-yl)-benzyl]-1H-benzoimidazole] | 60 |
| Fc1cc2nc(-c3ccc(Cl)cc3OCc3ccc(-c4nnn[nH]4)cc3F)n(CCC3CCCCC3)c2cc1F [Example 43, 2-{4-Chloro-2-[2-fluoro-4-(1H-tetrazol-5-yl)-benzyloxy]-phenyl}-1-(2-cyclohexyl-ethyl)-5,6-difluoro-1H-benzoimidazole] | 90 |
| Fc1cc2nc(-c3ccc(Cl)cc3OCC3CC3)n(Cc3cccc(Cl)c3)c2cc1F [Example 55, 1-(3-Chloro-benzyl)-2-(4-chloro-2-cyclopropylmethoxy-phenyl)-5,6-difluoro-1H-benzoimidazole] | 2600 |
| CCCCCn1c(-c2ccc(Cl)cc2OCc2ccc(-c3nnn[nH]3)cc2F)nc2cc(F)c(F)cc21 [Example 44, 2-{4-Chloro-2-[2-fluoro-4-(1H-tetrazol-5-yl)-benzyloxy]-phenyl}-5,6-difluoro-1-pentyl-1H-benzoimidazole] | 100 |
| Fc1cc2nc(-c3ccc(Cl)cc3OCC3CCCC3)n(Cc3ccccc3)c2cc1F [Example 49, 1-Benzyl-2-(4-chloro-2-cyclopentylmethoxy-phenyl)-5,6-difluoro-1H-benzoimidazole] | 1100 |
| Fc1cc2nc(-c3ccc(Cl)cc3OCc3ccc(-c4nnn[nH]4)c(F)c3)n(CC3CCCCC3)c2cc1F [Example 33, 2-{4-Chloro-2-[3-fluoro-4-(1H-tetrazol-5-yl)-benzyloxy]-phenyl}-1-cyclohexylmethyl-5,6-difluoro-1H-benzoimidazole] | 40 |
| Clc1ccc(-c2nc3ccccc3n2CC2CCCCC2)c(CCc2ccc(-c3nnn[nH]3)cc2)c1 [Example 74, 2-(4-Chloro-2-{2-[4-(1H-tetrazol-5-yl)-phenyl]-ethyl}-phenyl)-1-cyclohexylmethyl-1H-benzoimidazole] | 30 |
| O=C(O)Cc1ccc(COc2cc(Cl)ccc2-c2nc3cc(F)c(F)cc3n2CC2CCCCC2)cc1 [Example 28, {4-[5-Chloro-2-(1-cyclohexylmethyl-5,6-difluoro-1H-benzoimidazol-2-yl)-phenoxymethyl]-phenyl}-acetic acid] | 200 |
| Fc1cc2nc(-c3ccc(Cl)cc3OCC3CCCCC3)n(Cc3ccc(-c4nnn[nH]4)cc3F)c2cc1F [Example 87, 2-(4-Chloro-2-cyclohexylmethoxy-phenyl)-5,6-difluoro-1-[2-fluoro-4-(1H-tetrazol-5-yl)-benzyl]-1H-benzoimidazole] | 20 |
| O=C(O)COc1ccc(Cn2c(-c3ccc(Cl)cc3OCC3CCCC3)nc3cc(F)c(F)cc32)cc1 [Example 64, {4-[2-(4-Chloro-2-cyclopentylmethoxy-phenyl)-5,6-difluoro-benzoimidazol-1-ylmethyl]-phenoxy}-acetic acid] | 200 |
| O=C(O)c1ccc(CCc2ccccc2-c2nc3ccccc3n2CC2CCCCC2)cc1 [Example 78, 4-{2-[2-(1-Cyclohexylmethyl-1H-benzoimidazol-2-yl)-phenyl]-ethyl}-benzoic acid] | 90 |

More lines, now with the values ahead:

| IC50 [nM] | SMILES |
| --- | --- |
| 200 | O=C(O)c1ccc(COc2cc(Cl)ccc2-c2nc3cc(F)c(F)cc3n2CC2CCCCC2)cc1 [Example 23, 4-[5-Chloro-2-(1-cyclohexylmethyl-5,6-difluoro-1H-benzoimidazol-2-yl)-phenoxymethyl]-benzoic acid] |
| 200 | Fc1cc2nc(-c3ccc(Cl)cc3OCc3ccc(-c4nnn[nH]4)s3)n(CC3CCCCC3)c2cc1F [Example 37, 2-{4-Chloro-2-[5-(1H-tetrazol-5-yl)-thiophen-2-ylmethoxy]-phenyl}-1-cyclohexylmethyl-5,6-difluoro-1H-benzoimidazole] |
| 60 | Fc1cc2nc(-c3ccc(Cl)cc3OCC3CC3)n(Cc3ccc(-c4nnn[nH]4)cc3F)c2cc1F [Example 89, 2-(4-Chloro-2-cyclopropylmethoxy-phenyl)-5,6-difluoro-1-[2-fluoro-4-(1H-tetrazol-5-yl)-benzyl]-1H-benzoimidazole] |
| 400 | O=C(O)c1ccc(Cn2c(-c3ccc(Cl)cc3OCC3CCCC3)nc3cc(F)c(F)cc32)cc1 [Example 62, 4-[2-(4-Chloro-2-cyclopentylmethoxy-phenyl)-5,6-difluoro-benzoimidazol-1-ylmethyl]-benzoic acid] |
| 500 | O=C(O)c1ccc(CCOc2cc(Cl)ccc2-c2nc3cc(F)c(F)cc3n2CC2CCCCC2)cc1 [Example 27, 4-{2-[5-Chloro-2-(1-cyclohexylmethyl-5,6-difluoro-1H-benzoimidazol-2-yl)-phenoxy]-ethyl}-benzoic acid] |
| 90 | Fc1cc2nc(-c3ccc(Cl)cc3OCC3CCCC3)n(Cc3cccc(-c4nnn[nH]4)c3)c2cc1F [Example 67, 2-(4-Chloro-2-cyclopentylmethoxy-phenyl)-5,6-difluoro-1-[3-(1H-tetrazol-5-yl)-benzyl]-1H-benzoimidazole] |
| 400 | CC(C)(C)Cn1c(-c2ccc(Cl)cc2OCc2ccc(-c3nnn[nH]3)cc2F)nc2cc(F)c(F)cc21 [Example 46, 2-{4-Chloro-2-[2-fluoro-4-(1H-tetrazol-5-yl)-benzyloxy]-phenyl}-1-(2,2-dimethyl-propyl)-5,6-difluoro-1H-benzoimidazole] |
| 1800 | O=C(O)C1CCC(Cn2c(-c3ccc(Cl)cc3OCC3CCCC3)nc3cc(F)c(F)cc32)CC1 (stereo not shown) [Example 66, 4-[2-(4-Chloro-2-cyclopentylmethoxy-phenyl)-5,6-difluoro-benzoimidazol-1-ylmethyl]-cyclohexane carboxylic acid] |
| 90 | Fc1cc2nc(-c3ccc(Cl)cc3OCCc3ccc(-c4nnn[nH]4)cc3)n(CC3CCCCC3)c2cc1F [Example 36, 2-(4-Chloro-2-{2-[4-(1H-tetrazol-5-yl)-phenyl]-ethoxy}-phenyl)-1-cyclohexylmethyl-5,6-difluoro-1H-benzoimidazole] |
| 700 | Fc1cc2nc(-c3cccnc3OCc3ccccc3Cl)n(CC3CCCCC3)c2cc1F [Example 3, 2-[2-(2-Chloro-benzyloxy)-pyridin-3-yl]-1-cyclohexylmethyl-5,6-difluoro-1H-benzoimidazole] |
